# Legend:
# Format in all cases: cell-based, human
# MMP-1 [1] = experiment: ELISA of MMP-1 release into cell culture supernatant of HaCaT cells; conditions: 1, 10, or 100 nM RA; unpublished observations
# Description: HaCaT cells were supplemented with 0.5, 1.5, or 3 μM β-carotene for 2 days prior to UVA (270 kJ/m^2) irradiation. MMP-1 and TIMP-1 secretion 24 hours after irradiation was analyzed by ELISA. Each condition was represented by three replicates in the experiment. Values are means±standard error.
# Release of MMP-1, and TIMP-1 into cell culture supernatant was determined by ELISA at 24 hours after irradiation. MMP-1 and TIMP-1 release was measured using MMP-1 and TIMP ELISA from CALBIOCHEM (San Diego, Calif., USA). The ELISAs were performed according to the manufacturer's instructions.
# TIMP-1 = experiment: QRT-PCR gene expression in HaCaT cells with or without UVA; conditions: vitamin E 50 μM
# Description: (§1) HaCaT cells were obtained from Prof. Fusenig, German Cancer Research Centre, Heidelberg. […] The accuracy of cell counting was approximately 99%.
# Vitamin E (RRR-α-tocopherol; DSM Nutritional Products, Kaiseraugst, Switzerland) stock solutions and vitamin E-containing media were prepared as described for β-carotene-containing solutions, except that vitamin E was dissolved in ethanol. In experiments addressing the vitamin E effect, vitamin E was used in a final concentration of 50 μM. Again, the solvent concentration was kept constant at 0.03% ethanol for all conditions.
# On day 3 of the experiment, cells were washed six times with Ca/Mg-free PBS containing 2% BSA, and then irradiated with light with a Hönle sun lamp Sol 500 (Dr. Hönle, Plannegg, Germany) at a dose of 270 kJ/m^2 in Ca/Mg-free PBS (2 hour exposure time at […]). The experimental schedule was chosen because the cells had optimal UVA sensitivity after 48 hours in culture. […] Confluent cultures were much less sensitive to irradiation. […]
# (§2) cDNA corresponding to 10 ng total RNA was used as template to quantify the relative RNA expression of the genes of interest by TaqMan® real time PCR.
# The PCR analyses were carried out in triplicate and in a multiplex setup, using 18S rRNA as a calibrator gene. […] For quantification of the genes of interest, the primer concentrations were optimized for sensitivity of template detection. […] Regulation of gene expression was calculated as described in user bulletin #2 provided by the manufacturer. A threshold cycle (“CT”) is the first PCR cycle in which an amplification signal is detected. […] The δCT value describes the level of gene expression as the average PCR cycle, in which the gene of interest was detected first (CT value), subtracted by the CT value of the calibrator gene 18S rRNA (CTgene of interest−CTcalibrating gene), 18S rRNA served as a measure for the amount of template in the reaction. Routinely, 18S rRNA was detected between PCR cycle 12 and 13 (SE=standard error) A low δCT corresponds to a high mRNA level.
# MMP-3 = experiment: as above
# Description: as §1
# (§3) On day 3 of the experiment, cells were washed six times with Ca/Mg-free PBS containing 2% BSA, and then irradiated with light with a Hönle sun lamp Sol 500 (Dr. Hönle, Plannegg, Germany) at a dose of 270 kJ/m^2 in Ca/Mg-free PBS (2 hour exposure time at […]). The experimental schedule was chosen because the cells had optimal UVA sensitivity after 48 hours in culture. […] Confluent cultures were much less sensitive to irradiation.
# (§4) After irradiation, the cells were supplied with fresh β-carotene-containing serum-free medium and kept in the incubator at 37° C., 5% CO2 until harvest of the samples. In experiments in which the half-life of ^1O2 was prolonged by D2O to enhance its effect, PBS was prepared in D2O, instead of in H2O, as it was done for the standard conditions described above. Cells were washed twice in D2O-PBS prior to irradiation in D2O-PBS. After irradiation, cells were maintained with fresh β-carotene-containing serum-free medium. Sham controls were treated in an identical manner, by placing them under the solar simulator but shielded from light.
# (§5) Total RNA was isolated by using Trizol™ (Invitrogen, Basel, Switzerland) according to the instructions of the manufacturer. Random-primed cDNA was synthesized using the Superscript pre-amplification system for first strand cDNA synthesis (Invitrogen).
# as §2
# (§6) The PCR analyses were carried out in triplicate and in a multiplex setup, using 18S rRNA as a calibrator gene. The rRNA primers were used at a final concentration of 50 nM, the probe at 100 nM. For quantification of the genes of interest, the primer concentrations were optimized for sensitivity of template detection. […] PCR reactions were carried out for 40 cycles of 95° C. for 15 seconds and 60° C. for 1 minute in an ABI7700 (Applied Biosystems, Rotkreuz, Switzerland). Regulation of gene expression was calculated as described in user bulletin #2 provided by the manufacturer. A threshold cycle (“CT”) is the first PCR cycle in which an amplification signal is detected. Expression levels are given as δCT values. The δCT value describes the level of gene expression as the average PCR cycle, in which the gene of interest was detected first (CT value), subtracted by the CT value of the calibrator gene 18S rRNA (CTgene of interest−CTcalibrating gene), 18S rRNA served as a measure for the amount of template in the reaction. Routinely, 18S rRNA was detected between PCR cycle 12 and 13 (SE=standard error) A low δCT corresponds to a high mRNA level.
# MMP-10 = experiment: as above
# Description: as §1, §3, §4, §5, §2, §6
# MMP-1 [2] = experiment: as above
# Description: as §1, §3, §4, §5, §2, §6
# [3] = vitamin E 50 μM with β-carotene 1.5 μM
SMILES,UVA-induced MMP-1 secretion (MMP-1 [1]),UVA-suppressed TIMP-1 expression (TIMP-1),cooperation with β-carotene in reducing UVA-induction of MMP-3 (MMP-3; [3]),"MMP-3 expression (MMP-3; vitamin E alone, 50 μM)",cooperation with β-carotene in reducing UVA-induction of MMP-10 (MMP-10; [3]),"MMP-10 expression (MMP-10; vitamin E alone, 50 μM)",cooperation with β-carotene in reducing UVA-induction of MMP-1 (MMP-1 [2]; [3]),"MMP-1 expression (MMP-1 [2]; vitamin E alone, 50 μM)"
"CC1=C(/C=C/C(C)=C/C=C/C(C)=C/C(=O)O)C(C)(C)CCC1 [RA, retinoic acid]",no effect,,,,,,,
"Cc1c(C)c2c(c(C)c1O)CC[C@@](C)(CCC[C@H](C)CCC[C@H](C)CCCC(C)C)O2 [vitamin E, RRR-α-tocopherol]",,restored,did not cooperate,no effect,did not cooperate,no effect,did not cooperate,no effect

# Reference: US20160304957A1, “TREATMENT AND MODULATION OF GENE EXPRESSION AND SKIN AGING” (DSM NUTRITIONAL PRODUCTS LTD., priority 2006, published 2016)
